Data reported in PubChem BioAssay (NCI).
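Cultured in 96-well plates, cells were exposed to test compound for 48 hours across five concentrations. The concentration for 50% growth inhibition is given as GI50. TGI marks complete inhibition of growth.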

Columns and labels:
Assay in all cases: NCI anticancer screen, dose series, 48 h
A549 NSCLC = tested on: A549 NSCLC
SF-539 CNS = tested on: SF-539 CNS
KM12 colon = tested on: KM12 colon
OVCAR-5 ovarian = tested on: OVCAR-5 ovarian
LOX IMVI melanoma = tested on: LOX IMVI melanoma
DMS 114 small cell lung = tested on: DMS 114 small cell lung
MALME-3M melanoma = tested on: MALME-3M melanoma
CCRF-CEM leukemia = tested on: CCRF-CEM leukemia
RPMI-8226 leukemia = tested on: RPMI-8226 leukemia
SNB-75 CNS = tested on: SNB-75 CNS
HL-60(TB) leukemia = tested on: HL-60(TB) leukemia
HOP-62 NSCLC = tested on: HOP-62 NSCLC
CAKI-1 renal = tested on: CAKI-1 renal
RXF 393 renal = tested on: RXF 393 renal
LXFL 529 NSCLC = tested on: LXFL 529 NSCLC
TK-10 renal = tested on: TK-10 renal
M14 melanoma = tested on: M14 melanoma
SR leukemia = tested on: SR leukemia

Row | SMILES | TGI (A549 NSCLC) | TGI (SF-539 CNS) | TGI (KM12 colon) | TGI (OVCAR-5 ovarian) | TGI (LOX IMVI melanoma) | TGI (DMS 114 small cell lung) | TGI (MALME-3M melanoma) | GI50 (CCRF-CEM leukemia) | TGI (CCRF-CEM leukemia) | TGI (RPMI-8226 leukemia) | TGI (SNB-75 CNS) | GI50 (HL-60(TB) leukemia) | TGI (HL-60(TB) leukemia) | TGI (HOP-62 NSCLC) | TGI (CAKI-1 renal) | TGI (RXF 393 renal) | TGI (LXFL 529 NSCLC) | TGI (TK-10 renal) | TGI (M14 melanoma) | TGI (SR leukemia)
1 | O=C(O)/C=C/c1cnc[nH]1 | > 500 µM | > 500 µM | > 500 µM | > 500 µM | > 500 µM | > 500 µM | > 500 µM | > 500 µM | > 500 µM | > 500 µM | > 500 µM | > 500 µM | > 500 µM | > 500 µM | > 500 µM | > 500 µM |  |  |  | 
2 | COc1cccc(C2C(C(=O)O)=C(CO)Oc3cc4c(cc32)OCO4)c1 (centres undefined) |  | > 100 µM |  |  | > 100 µM | > 100 µM | > 100 µM |  | > 100 µM | > 100 µM | > 100 µM |  | > 100 µM |  | > 100 µM |  | > 100 µM | > 100 µM | > 100 µM | 
3 | COc1ccc2c(c1)O[C@H]1c3ccc(O)cc3OC[C@@H]21 | > 100 µM | 49.9 µM |  | > 100 µM | 32.2 µM |  | > 100 µM |  | 65.8 µM | 89 µM | 47.1 µM |  | 49.8 µM | > 100 µM | > 100 µM | 54.9 µM | 80.3 µM | > 100 µM | 47.7 µM | 43.7 µM
4 | CCOc1ccc(N=Nc2ccc3oc(=O)c(/C(C)=N\NC(=O)CC(=O)Nc4ccc(Cl)cc4)cc3c2)cc1 | 43.3 µM | 33.5 µM | 60.7 µM | > 100 µM | 26.5 µM | 42 µM | 30.3 µM |  | 11.4 µM | 64.7 µM |  |  |  | 36.4 µM | > 100 µM | 29.6 µM | 27 µM | 35.5 µM |  | 25 µM
5 | COC(=O)C1=COC2OC3/C(=C\c4ccc(O)c(OC)c4)C(=O)OC34C=CC1C24 (centres undefined) | 32.4 µM | 31.2 µM | 26.8 µM | 32.6 µM |  | 39.5 µM | 31 µM |  | 49.2 µM | > 100 µM | 25.2 µM |  | 27.7 µM | 39.5 µM | 41.7 µM |  | 27.1 µM | 31 µM | 14.7 µM | > 100 µM
6 | CCOC(=O)C1(C(=O)OCC)CSC1 | > 100 µM |  | > 100 µM |  | > 100 µM |  |  |  | > 100 µM |  | > 100 µM |  |  |  |  | > 100 µM |  | > 100 µM | > 100 µM | > 100 µM
